Each block holds one compound with its values, some of them ahead of it.
How the values were obtained:
[1] = system: G4 MYC (DNA, G4) TGAGGGTGGGTAGGGTGGGTAA; experiment: fluorescent intercalator displacement; details: 100 mM K+, 10 mM lithium cacodylate pH 7.3, thiazole orange displaced
[2] = system: dsDNA (DNA, duplex) CAATCGGATCGAATTCGATCCGATTG; experiment: fluorescent intercalator displacement; details: 100 mM K+, 10 mM lithium cacodylate pH 7.3, thiazole orange displaced
[3] = system: G4 KIT1 (DNA, G4) AGGGAGGGCGCTGGGAGGAGGG; experiment: CD titration; details: 100 mM Li+; 10 mM Tris-HCl pH 7.4, 20 °C; 10 µM DNA; 405 nm illuminated; G4 induction
[4] = system: G4 MYC (DNA, G4) TGAGGGTGGGTAGGGTGGGTAA; experiment: CD titration; details: 100 mM Li+, 10 mM Tris-HCl pH 7.4, 20 °C, 10 µM DNA

SMILES: NCCOc1cc(NC(=O)c2ccc3c(c2)/N=N/c2cc(-c4ccc(N5CCCCC5)cc4)ccc2CC3)nc2ccccc12
apparent Kd [1]: 760 ± 130 nM

SMILES: NCCOc1cc(NC(=O)c2ccc3c(c2)/N=N/c2cc(-c4ccc5cccnc5c4)ccc2CC3)nc2ccccc12
apparent Kd [1]: 1000 ± 30 nM

SMILES: NCCOc1cc(NC(=O)c2ccc3c(c2)/N=N/c2cc(C4=CCNCC4)ccc2CC3)nc2ccccc12
binding ([2]; 405 nm illuminated): no
DC50 ([1]; normalized to trans isomer): 1150 ± 60 nM
apparent Kd ([1]; derived from DC50 normalized to trans isomer): 460 ± 20 nM
binding [3]: yes
binding ([4]; 405 nm illuminated, parallel G4 induction): yes

SMILES: NCCOc1cc(NC(=O)c2ccc3c(c2)/N=N\c2cc(C4=CCNCC4)ccc2CC3)nc2ccccc12
binding ([2]; dark): no
DC50 ([1]; dark): 12460 ± 650 nM
apparent Kd ([1]; dark, b14 prints error as 0.65): 4970 ± 260 nM
binding ([4]; dark, slight shift at 30 µM): weak

The remaining lines, values ahead:

apparent Kd [1]: 940 ± 30 nM
SMILES: NCCOc1cc(NC(=O)c2ccc3c(c2)/N=N/c2cc(-c4ccc5ncccc5c4)ccc2CC3)nc2ccccc12

apparent Kd [1]: 970 ± 60 nM
SMILES: NCCOc1cc(NC(=O)c2ccc3c(c2)/N=N/c2cc(-c4cnc5ccccc5c4)ccc2CC3)nc2ccccc12

binding ([2]; highest 5 µM, 405 nm illuminated): no
DC50 ([1]; normalized to trans isomer): 1580 ± 50 nM
apparent Kd ([1]; derived from normalized DC50): 630 ± 20 nM
SMILES: NCCOc1cc(NC(=O)c2ccc3c(c2)/N=N/c2cc(C4=CCN(CCNC(=O)CCOCCOCCOCCOCCNC(=O)CCCC[C@@H]5SC[C@@H]6NC(=O)N[C@@H]65)CC4)ccc2CC3)nc2ccccc12
